Measured values from publication PMC6277767, “Broad and Region-Specific Impacts of the Synthetic Cannabinoid CP 55,940 in Adolescent and Adult Female Mouse Brains” (Frontiers in Molecular Neuroscience, 2018).

Tested on: CD1 female mouse brain lipidome
Assay: Brain-region lipid levels (HPLC/MS/MS lipidomics) 2 h after single i.p. 3 mg/kg CP 55,940 vs vehicle
Format: in vivo
Set-up: N-arachidonoyl phenylalanine level, Mean / N-stearoyl tryptophan level, Mean / N-stearoyl proline level, Mean / N-stearoyl leucine level, Mean / N-stearoyl phenylalanine level, Mean / N-stearoyl serine level, Mean / N-stearoyl methionine level, Mean: unit: moles per gram
Conditions: cortex
Method: The Bloomington Institutional Animal Care and Use Committee of Indiana University reviewed and approved the animal procedures. Female mice from the CD1 strain were utilized to match our study examining THC’s effects on the brain lipidome ([Leishman et al., 2018]). Mice were given a single i.p. injection of either 3 mg/kg CP or 1:1:18 cremophor:ethanol:saline vehicle (please refer to the section “3 mg/kg CP Is Relevant for Synthetic Cannabinoid Abuse and Has Stronger Effects on the Female Mouse Brain Lipidome During Adolescence” for a justification of dose and use of female mice). Three different age groups were given injections: PND 35 and PND 50 adolescents, and adult mice (PND 113). At least eight mice in each age group received CP and at least eight received vehicle. Matching the THC study time course ([Leishman et al., 2018]), mice were sacrificed via rapid decapitation 2 h after injection. Brains were immediately removed and flash-frozen in liquid nitrogen, and then stored at -80°C until dissections were performed. Brains were dissected on an ice-cold dissection plate into the following regions: STR, HIPP, CER, THAL, CTX, HYP, MID, and STEM. These abbreviations for these brain areas will be used exclusively when discussing the results generated by these specific dissections. Each dissected area was immediately placed in liquid nitrogen and then stored at -80°C until used for lipid extraction.
Tissue extracts were performed as previously described ([Bradshaw et al., 2006]; [Stuart et al., 2013]; [Raboune et al., 2014]; [Leishman et al., 2016a],[b], [2017], [2018]). First, samples were shock frozen in liquid nitrogen, weighed, and transferred to a centrifuge tube. The mass of the largest sample was multiplied by 50 to determine how many milliliters of HPLC-grade methanol (Fisher, Fair Lawn, NJ, United States) to add. Then, samples were spiked with 500 pmol deuterium-labeled NAGly (d8NAGly; Cayman Chemical, Ann Arbor, MI, United States). Samples were placed on ice in darkness for 2 h then individually homogenized and centrifuged at 19,000 × g for 20 min at 20°C. Supernatants were diluted with HPLC water (purified in house) to make a solution of 75% water, 25% supernatant. Lipids were partially purified on C18 solid phase extraction columns (Agilent, Palo Alto, CA, United States). A series of four elutions with 1.5 mL of 60%, 75%, 85%, and 100% methanol were collected ([Stuart et al., 2013]; [Leishman et al., 2016a],[b], [2018]).
As previously described ([Bradshaw et al., 2006]; [Tan et al., 2006]; [Smoum et al., 2010]; [Stuart et al., 2013]; [Tortoriello et al., 2013]; [Raboune et al., 2014]; [Leishman et al., 2016a],[b], [2017], [2018]), samples were analyzed using an Applied Biosystems API 3000 triple quadrupole mass spectrometer with electrospray ionization (Foster City, CA, United States). Using an Agilent XDB-C18 reversed phase analytical column and optimized mobile phase gradients, 20 μL from each elution were chromatographed. Two Shimadzu 10ADvp pumps (Columbia, MD, United States) provided the pressure for gradient elution. Mobile phase A: 20% methanol, 80% water (v/v) and 1 mM ammonium acetate (Sigma, St. Louis, MO, United States). Mobile phase B: 100% methanol, 1 mM ammonium acetate. Every method run began with 0% mobile phase B, reached 100% mobile phase B flowing at 0.2 mL/min, and gradually returned to 0% mobile phase B.
This screening library will be referred to as the lipidome when discussing data from this study. HPLC/MS/MS data were analyzed using Analyst software (Applied Biosystems) ([Bradshaw et al., 2006]; [Tan et al., 2006]; [Stuart et al., 2013]; [Tortoriello et al., 2013]; [Raboune et al., 2014]; [Leishman et al., 2016a],[b], [2017], [2018]). Chromatograms (Supplementary Figure 3) were generated by determining the retention time of analytes from the analytical column with a [M-1] or [M+1] parent peak and a fragmentation peak corresponding to the programmed values. […]

[1] = PND 50, 3 mg/kg CP 55,940, ANOVA p .000
[2] = PND 50, 3 mg/kg CP 55,940, ANOVA p .002
[3] = PND 50, 3 mg/kg CP 55,940, ANOVA p .004
[4] = PND 50, 3 mg/kg CP 55,940, ANOVA p .040
[5] = PND 50 female mice, 3mg/kg CP 55,940

## CCCCCCC(C)(C)c1ccc([C@@H]2C[C@H](O)CC[C@H]2CCCO)c(O)c1 [CP 55,940]
PND 50, 3 mg/kg CP 55,940
  Arachidonic acid, Direction (relative to Veh): ↓
  Linoleic acid, Direction (relative to Veh): ↓
  N-arachidonoyl GABA Direction (relative to Veh): ↓
  N-arachidonoyl alanine, Direction (relative to Veh): ↓
  N-arachidonoyl ethanolamine, Direction (relative to Veh): ↓
  N-arachidonoyl phenylalanine, Direction (relative to Veh): ↓
  N-arachidonoyl taurine Direction (relative to Veh): ↓
  N-docosahexaenoyl ethanolamine, Direction (relative to Veh): ↓
  N-linoleoyl ethanolamine, Direction (relative to Veh): ↓
  N-oleoyl ethanolamine, Direction (relative to Veh): ↓
  N-oleoyl serine, Direction (relative to Veh): ↑
  N-palmitoyl leucine, Direction (relative to Veh): ↑
  N-palmitoyl methionine, Direction (relative to Veh): ↑
  N-palmitoyl phenylalanine Direction (relative to Veh): ↑
  N-palmitoyl tyrosine, Direction (relative to Veh): ↑
  N-palmitoyl valine Direction (relative to Veh): ↑
  N-stearoyl phenylalanine, Direction (relative to Veh): ↑
  N-stearoyl valine Direction (relative to Veh): ↑
  PGE2 Direction (relative to Veh): ↓
[1]
  Linoleic acid, Magnitude (x Veh level): 0.57 x Veh level
  N-palmitoyl leucine, Magnitude (x Veh level): 1.41 x Veh level
  N-palmitoyl methionine, Magnitude (x Veh level): 1.43 x Veh level
[2]
  N-oleoyl ethanolamine, Magnitude (x Veh level): 0.65 x Veh level
  PGE2 Magnitude (x Veh level): 0.79 x Veh level
[3]
  N-arachidonoyl GABA Magnitude (x Veh level): 0.86 x Veh level
  N-arachidonoyl taurine Magnitude (x Veh level): 0.84 x Veh level
PND 50, 3 mg/kg CP 55,940, ANOVA p .005
  2-linoleoyl glycerol Magnitude (x Veh level): 0.67 x Veh level
PND 50, 3 mg/kg CP 55,940, ANOVA p .006
  N-palmitoyl phenylalanine Magnitude (x Veh level): 1.39 x Veh level
PND 50, 3 mg/kg CP 55,940, ANOVA p .007
  N-arachidonoyl ethanolamine, Magnitude (x Veh level): 0.70 x Veh level
PND 50, 3 mg/kg CP 55,940, ANOVA p .012
  N-arachidonoyl alanine Magnitude (x Veh level): 0.75 x Veh level
PND 50, 3 mg/kg CP 55,940, ANOVA p .014
  N-docosahexaenoyl ethanolamine, Magnitude (x Veh level): 0.72 x Veh level
PND 50, 3 mg/kg CP 55,940, ANOVA p .018
  2-oleoyl glycerol, Magnitude (x Veh level): 0.88 x Veh level
PND 50, 3 mg/kg CP 55,940, ANOVA p .019
  N-palmitoyl valine Magnitude (x Veh level): 1.37 x Veh level
PND 50, 3 mg/kg CP 55,940, ANOVA p .039
  N-stearoyl phenylalanine, Magnitude (x Veh level): 1.12 x Veh level
[4]
  Arachidonic acid, Magnitude (x Veh level): 0.76 x Veh level
  N-oleoyl serine, Magnitude (x Veh level): 1.09 x Veh level
PND 50, 3 mg/kg CP 55,940, ANOVA p .044
  N-arachidonoyl phenylalanine, Magnitude (x Veh level): 0.78 x Veh level
PND 50, 3 mg/kg CP 55,940, ANOVA p .053
  N-palmitoyl tyrosine Magnitude (x Veh level): 1.25 x Veh level
PND 50, 3 mg/kg CP 55,940, ANOVA p .066
  N-linoleoyl ethanolamine, Magnitude (x Veh level): 0.69 x Veh level
PND 50, 3 mg/kg CP 55,940, ANOVA p .067
  N-stearoyl valine Magnitude (x Veh level): 1.29 x Veh level
[5]
  2-arachidonoyl glycerol level, Mean: 2.72E-09
  2-linoleoyl glycerol level, Mean: 9.55E-11
  2-oleoyl glycerol level, Mean: 1.53E-09
  2-palmitoyl glycerol level, Mean: 5.35E-09
  6-ketoPGF1α level, Mean: 5.34E-12
  11-OH-THC level, Mean: BDL
  11-nor-9-carboxyTHC level, Mean: BDL
  Arachidonic acid level, Mean: 1.42E-09
  Cannabidiol level, Mean: BDL
  Linoleic acid level, Mean: 9.48E-10
  N- stearoyl valine level, Mean: 2.32E-13
  N-arachidonoyl GABA level, Mean: 1.93E-11
  N-arachidonoyl alanine level, Mean: 9.08E-13
  N-arachidonoyl dopamine level, Mean: BDL
  N-arachidonoyl ethanolamine level, Mean: 1.23E-11
  N-arachidonoyl glycine level, Mean: 3.26E-12
  N-arachidonoyl phenylalanine level, Mean: 4.3E-13
  N-arachidonoyl proline level, Mean: BDL
  N-arachidonoyl serine level, Mean: 1.27E-11
  N-arachidonoyl taurine level, Mean: 5.99E-11
  N-arachidonoyl tryptophan level, Mean: BDL
  N-arachidonoyl tyrosine level, Mean: 1.87E-13
  N-docosahexaenoyl GABA level, Mean: 9.29E-12
  N-docosahexaenoyl ethanolamine level, Mean: 1.26E-11
  N-docosahexaenoyl glycine level, Mean: 3.17E-13
  N-docosahexaenoyl leucine level, Mean: 3.29E-13
  N-docosahexaenoyl methionine level, Mean: BDL
  N-docosahexaenoyl phenylalanine level, Mean: 4.81E-13
  N-docosahexaenoyl proline level, Mean: BDL
  N-docosahexaenoyl serine level, Mean: 1.83E-11
  N-docosahexaenoyl tryptophan level, Mean: BDL
  N-docosahexaenoyl tyrosine level, Mean: 3.22E-13
  N-docosahexaenoyl valine level, Mean: PISSR
  N-linoleoyl GABA level, Mean: 6.54E-12
  N-linoleoyl ethanolamine level, Mean: 1.61E-11
  N-linoleoyl glycine level, Mean: 1.08E-13
  N-linoleoyl leucine level, Mean: 7.72E-14
  N-linoleoyl methionine level, Mean: BDL
  N-linoleoyl phenylalanine level, Mean: 1E-13
  N-linoleoyl proline level, Mean: BDL
  N-linoleoyl serine level, Mean: 6.54E-11
  N-linoleoyl tryptophan level, Mean: BDL
  N-linoleoyl tyrosine level, Mean: BDL
  N-linoleoyl valine level, Mean: PISSR
  N-nervonoyl valine level, Mean: BDL
  N-oleoyl GABA level, Mean: 1.38E-11
  N-oleoyl alanine level, Mean: 1.52E-12
  N-oleoyl dopamine level, Mean: BDL
  N-oleoyl ethanolamine level, Mean: 3.66E-11
  N-oleoyl glycine level, Mean: 1.38E-12
  N-oleoyl leucine level, Mean: 7.87E-13
  N-oleoyl methionine level, Mean: 2.34E-13
  N-oleoyl phenylalanine level, Mean: 1.02E-12
  N-oleoyl proline level, Mean: BDL
  N-oleoyl serine level, Mean: 1.22E-10
  N-oleoyl tryptophan level, Mean: BDL
  N-oleoyl tyrosine level, Mean: 3.4E-13
  N-oleoyl valine level, Mean: 6.43E-14
  N-palmitoyl GABA level, Mean: 1.74E-11
  N-palmitoyl alanine level, Mean: 1.42E-12
  N-palmitoyl ethanolamine level, Mean: 1.43E-11
  N-palmitoyl glycine level, Mean: 6.08E-12
